What all share (format): cell-based, human
Experiment [1] deals with HH cells. As to the kind of experiment: Caspase-3 and PARP cleavage in HH cells. As to the method:
(§1) To determine whether IFN alpha and beta were able to selectively phosphorylate STAT3 in other cell types. Studies were conducted in a range of other biologically relevant cell types. In these experiments, cells were grown in media supplemented with 10% FBS, and then serum starved for 18 hours and exposed to various stimuli for 30 minutes. […] (FIG. 10), and induced caspase-3 and PARP cleavage in these cells (Table E5)
(§2) HH, HuT78 and MJ cells were treated with vehicle alone or WP1220 for 24 hours. Total caspase-3 and cleaved caspase-3 levels were measured in 15 ug lysates by a meso-Scale 2400 imager. Results represent means fold stimulations compared to the controls based on duplicate samples (+++++=15-25 fold; ++++=10-15 fold; +++=5-10 fold; =/−=less than 2 fold.

The subject of experiment [2] is MJ cells. Kind of experiment: Caspase-3 induction in MJ cells. Particulars: 10.0 uM, 24 hours. The method, then:
as §2

Experiment [3] deals with HuT78 and HH CTCL cell lines. Kind of experiment: In vitro growth of CTCL cell lines.
Experiment [4] concerns STAT3 in HH, HuT78 and MJ CTCL lines. As to the kind of experiment: STAT3 tyrosine 705 phosphorylation in CTCL lines. As to the method: To determine whether IFN alpha and beta were able to selectively phosphorylate STAT3 in other cell types. Studies were conducted in a range of other biologically relevant cell types. In these experiments, cells were grown in media supplemented with 10% FBS, and then serum starved for 18 hours and exposed to various stimuli for 30 minutes.

Experiment [5] relates to STAT3 in HaCaT keratinocytes. Kind of experiment: pSTAT3 level in HaCaT keratinocytes (MSD chemiluminescent detection). The note with it: pre-incubated. As to the method:
Prior to experiments, the DMEM medium was changed to KGM-SFM containing rEGF and bovine pituitary extract for 12 hours, and the cells then exposed to various stimuli for 30 minutes. Cell lysates were extracted in IP lysis buffer were diluted in MSD extraction buffer and 25 uL of the cell lysate containing 10 ug protein was used in the analysis via chemiluminescent detection (MSD Technology). To test for inhibition by WP1220 (WP), cells were pre-incubated with WP1220 prior to the addition of IFN α.

For experiment [6], the system named is HuT78 Cells. As to the kind of experiment: Caspase-3 and PARP cleavage in HuT78 cells. As to the method:
as §1, §2

This is an account of results in patent publication US20130129675A1, “INTERFERON THERAPIES IN COMBINATION WITH BLOCKADE OF STAT3 ACTIVATION” (BOARD OF REGENTS, THE UNIVERSITY OF TEXAS SYSTEM, priority 2009, published 2013).

Consider `C[C@H](NC(=O)/C(C#N)=C/C=C/c1cccc(Br)n1)c1ccccc1` [WP1220, (2E,4E)-5-(6-bromopyridin-2-yl)-2-cyano-N—((S)-1-phenylethyl)penta-2,4-dienamide], for which the “Cleaved Caspase” value in experiment [1] (5.0 uM), in experiment [1] (10.0 uM) and in experiment [6] (5.0 uM) was “++++ (++++=60,000-40,000)” in each case. For the same compound, the “Cleaved PARP” value in experiment [1] (5.0 uM) is recorded as “+++++ (+++++=10,000-7,000)”; in experiment [1] (10.0 uM), “+++ (+++=5,000-2000)”; in experiment [6] (5.0 uM), “++++ (++++=7,000-5,000)”; in experiment [6] (10.0 uM), “+++ (+++=5,000-2000)”. Moreover, the “induction of caspase-3 activity (fold stimulation compared to controls)” value in experiment [1] (10.0 uM, 24 hours) is recorded as “+++++ (+++++=15-25 fold)”; in experiment [2], “+++ (+++=5-10 fold)”; in experiment [6] (10.0 uM, 24 hours), “++++ (++++=10-15 fold)”. Moreover, in experiment [3], the in vitro growth entry is on record as “potently inhibiting the in vitro growth”. Moreover, the “relative level of activated pSTAT3” value in experiment [4] (HH cells) is “time dependent decrease”. The “constitutive and interferon stimulated phosphorylation of STAT3” value in experiment [4] (HH, HuT78, MJ cells (FIG. 8A, B)) was “specifically blocked”. The “pSTAT3 signal remaining after WP1220 pre-incubation” value in experiment [5] (IFN α + WP 5 uM) is listed as “+++ (+++=2,000-4,000)”; in experiment [5] (IFN α + WP 10 uM), “++ (++=2,000-1,500)”; in experiment [5] (IFN α + WP 20 uM), “+ (+=less than 1,500)”.
